Results reported in patent publication US6649797B2, “Compounds and methods of use to treat infectious diseases” (The Picower Institute for Medical Research, priority 1996, dated 2003).

Assays:
[1] = tested on: HIV-1 pre-integration complexes / karyopherin α; assay: Binding of HIV-1 pre-integration complexes to GST-karyopherin α; type: biochemical; conditions: for reduction of karyopherin α/HIV-1 binding: lysates of HIV-1RF infected H9 cells treated 2 hours, Phosphorimager
Method: Cytoplasmic lysates of H9 cells infected with HIV-1RF (upper panel) or HIV-like pseudovirions (bottom panel) were treated for 2 hours with various concentrations of CNI-H0294, and were then mixed with GST-karyopherin α immobilized on glutathione Sepharose beads. HIV-1 DNA or RNA that co-precipitated with karyopherin α was quantified as in A and B.
Cytoplasmic lysates prepared from H9 cells infected with HIV-1RF were treated with 10 μM CNI-H3094 (lane 1) or with 1 μM CNI-H0294 and 10 μM (lane 5), 5 μM (lane 4), 1 μM (lane 3), or no CNI-H3094 (lane 2). The amount of pre-integration complexes available for interaction with karyopherin α was quantified as in FIG. 10.
H9 cells were infected with equal amounts of wild-type HIV-1NLHX or with mutant HIV-1NLHX that lack Vpr (Vpr^−) or carry a mutation that inactivates the MA NLS (MA NLS^−). Infected cells were washed and incubated for 4 h. An aliquot of each sample was used to quantify the total HIV-1 DNA (FIG. 14A) and the rest was used to prepare cytoplasmic extracts. Extracts were incubated with 1 μM CNI-H0294 (FIG. 14B, lanes 2, 4, 6, 8) or were left untreated (lanes 1, 3, 5, 7). The amount of pre-integration complexes available for binding to karyopherin α was determined as in FIG. 10.
H9 cells were infected with HIV-1 or HIV-like pseudovirions (Haffar, et al., 1990, J. Virol., 64:2653-2659) at a multiplicity adjusted according to p24 content (50 ng p24 per 10^6 cells) The MA NLS^− virus contains substitutions of isoleucine residues for lysines in positions 26 and 27 of MA in an NLHX backbone (Westervelt., et al., 1992, J. Virol. 66:2577-2582), thus inactivating the NLS. The Vpr^− virus has the initiating ATG of the vpr gene changed to GTG, thus abolishing expression of this gene. The ΔMA NLS pseudovirions have leucine substituting for lysine in position 28 of MA. This mutation abrogates nuclear translocation of HIV-1 gag RNA in growth-arrested H9 cells infected with pseudovirions. After a 1 hour absorption, excess viruses or pseudovirions were washed away, and cells were incubated for an additional 2-3 hour period at 37° C. prior to analysis.
Cytoplasmic extracts were prepared by lysing cells in cold extraction buffer (10 mM KCl, 10 mM Tris-HCl [pH 7.6], 0.5 mM MgCl2, 1 μg/ml each of leupeptin and aprotinin, and 1 MM phenylmethylsulfonyl fluoride [PMSF]) by 20-30 strokes of a Dounce homogenizer under the control of phase-contrast microscopy. After removal of nuclei, cytoplasmic extract was cleared by centrifugation at 15,000 g for 10 min.
Cytoplasmic extracts prepared from HIV-1-or pseudovirion-infected H9 cells were adjusted to 0.14 M NaCl, 0.1% Tween 20 and precleared with glutathione-Sepharose beads for 30 min. at room temperature. Karyopherin α was expressed as a fusion protein with glutathione S-transferase (GST) which can bind glutathione beads in solution. GST-karyopherin α immobilized on Sepharose beads was then added (about 50 μg of immobilized karyopherin α per extract from 108 infected cells) and the mixture was incubated at room temperature for another 30 min. Beads were then pelleted by centrifugation and washed 3 times with PBS supplemented with 0.1% Tween 20, 1 μg/ml each of leupeptin and aprotinin, and 1 mM PMSF. HIV-1 DNA was isolated from the beads by SDS-proteinase K treatment with subsequent phenol-chloroform extraction, while pseudovirion gag RNA was isolated by RNazol (Biotecx Laboratories Inc.).

[2] = tested on: HIV-1ADA; assay: Nuclear importation of HIV-1 DNA in monocytes (2-LTR circle PCR, Translocation Index); type: cell-based; conditions: 100 nM, 48 and 96 hours post infection
Text: The effects of Compound No. 2 on the nuclear importation of HIV-1 preintegration complexes can be directly measured by detecting the presence of circularized duplex HIV-1 genomic DNA. These duplex circles can be readily detected by PCR amplification using primers which span the junction of the circularized HIV-1 genome. Bukrinsky, M. I., et al., 1992, Proc.Natl.Acad.Sci. 89:6580-84.
Briefly, the efficiency of nuclear translocation was estimated by the ratio between the 2-LTR- and pol-specific PCR products, which reflects the portion of 2-LTR circle DNA molecules as a fraction of the entire pool of intracellular HIV-1 DNA. Viral 2-LTR circle DNA is formed exclusively within the nucleus of infected cells and thus is a convenient marker of successful nuclear translocation. […]
PCR analysis of HIV-1 DNA: Total DNA was extracted from HIV-1-infected cells using the IsoQuick extraction kit (Microprobe Corp., Garden Grove, Calif.). DNA was then analyzed by PCR using primer pairs that amplify the following sequences: a fragment of HIV-1 (LTR/gag) that is the last one to be synthesized during reverse transcription and therefore represents the pool of full-length viral DNA molecules; a fragment of polymerase gene (pol); a 2-LTR junction region found only in HIV-1 2-LTR circle DNA molecules; or a fragment of the cellular a-tubulin gene. […]

Row | Structure (SMILES) | reduction of karyopherin α/HIV-1 binding ([1]; 0.1 μM) [fold] | effect on binding of karyopherin α to complexes ([1]; 1 μM, MA NLS^− complexes) | diminished binding of karyopherin α to complexes ([1]; 1 μM, Vpr^− complexes) [%] | reduction of karyopherin α/HIV-1 binding ([1]; 1 μM) [fold] | diminished binding of karyopherin α to complexes ([1]; 1 μM, wild-type (wt) HIV-1NLHX complexes) [%] | interaction of pre-integration complexes with karyopherin α ([1]; 10 μM (FIG. 13A)) | Translocation Index ([2]; relative to drug free control) | inhibition at 0.1 µM ([2]; Human immunodeficiency virus 1, Monocyte) [%]
1 | CC(=O)c1cc(Nc2cc(C)[n+](C)c(N)n2)cc(C(C)=O)c1 [CNI-0294, 2-Amino-4-(3,5-diacetylphenyl)amino-1,6-dimethylpyrimidinium chloride] | 8 | had no effect | 95 | 25 | 95 | blocked the interaction |  | 
2 | CC(=O)c1cc(Nc2cc(C)[n+](C)c(N)n2)cc(C(C)=O)c1.[I-] [Compound No. 2, 2-amino-4-(3,5-diacetylphenyl)amino-1,6-dimethylpyrimidinium iodide] |  |  |  |  |  |  | less than 10 | > 90
